What was measured:
Type in all cases: in vivo
[1] = system: Amaranthus retroflexus L.; experiment: Greenhouse post-emergence treatment of Amaranthus retroflexus L. (pigweed); conditions: application rate 1.0 kg/ha, scale 0 to 100
Source text: (§1) The seeds of the test plants were sown separately for each species. For the post-emergence treatment, the test plants were first grown to a height of 3 to 15 cm, depending on the plant habit, and only then treated with the active ingredients which had been suspended or emulsified in water. For this purpose, the test plants were either sown directly and grown in the same containers, or they were first grown separately as seedlings and transplanted into the test containers a few days prior to treatment. Depending on the species, the plants were kept at 10-25° C. or 20-35° C. The test period extended over 2 to 4 weeks. During this time, the plants were tended, and their response to the individual treatments was evaluated. Evaluation was carried out using a scale from 0 to 100. 100 means no emergence of the plants, or complete destruction of at least the aerial moieties, and 0 means no damage, or normal course of growth. A good herbicidal activity is given at values of at least 80 and a very good herbicidal activity is given at values of at least 90. The plants used in the greenhouse experiments belonged to the following species: [table]

Polygonum convolvulus = experiment: Greenhouse post-emergence treatment of Polygonum convolvulus (wild buckwheat); conditions: application rate 1.0 kg/ha, scale 0 to 100
Source text: as §1

Agrostis stolonifera L. = experiment: Greenhouse post-emergence treatment of Agrostis stolonifera L. (white bent); conditions: application rate 2.0 kg/ha, scale 0 (no damage) to 100 (complete destruction)
Source text: as §1

Matricaria inodora = experiment: Greenhouse post-emergence treatment of Matricaria inodora (horse daisy); conditions: application rate 2.0 kg/ha, scale 0 (no damage) to 100 (complete destruction)
Source text: as §1

Abutilon theophrasti = experiment: Greenhouse post-emergence treatment of Abutilon theophrasti (velvetleaf); conditions: scale 0 (no damage) to 100 (complete destruction)
Source text: as §1

Avena fatua = experiment: Greenhouse post-emergence treatment of Avena fatua (spring-wild oat); conditions: scale 0 (no damage) to 100 (complete destruction)
Source text: as §1

Chenopodium album = experiment: Greenhouse post-emergence treatment of Chenopodium album (fat-hen); conditions: application rate 1.0 kg/ha; for damage: scale 0 to 100; for pest or weed control at 1000 g/ha: scale 0 to 100, read-out: damage
Source text: as §1

Alopecurus myosuroides = experiment: Greenhouse post-emergence treatment of Alopecurus myosuroides (blackgrass); conditions: application rate 1.0 kg/ha, scale 0 (no damage) to 100 (complete destruction)
Source text: as §1

Setaria faberi = experiment: Greenhouse post-emergence treatment of Setaria faberi (giant foxtail); conditions: for damage: scale 0 to 100
Source text: as §1

Lolium multiflorum = experiment: Greenhouse post-emergence treatment of Lolium multiflorum (italian ryegrass); conditions: application rate 1.0 kg/ha, scale 0 (no damage) to 100 (complete destruction)
Source text: as §1

In the case of `CC(C)(C)Cc1noc2nc(C3(F)CC3)cc(C(=O)O)c12` [I.7.69], the damage [1] is reported as 100% and the damage (Polygonum convolvulus) is reported as 100%.
`Cc1noc2nc(C3CC3)cc(C(=O)OCc3nc(-c4cccs4)no3)c12` [I.1.10] was tested, and the damage (Agrostis stolonifera L.) was 90% and the damage (Matricaria inodora) was 85%.
Work on `Cc1noc2nc(C3CC3)cc(C(=O)OC(C)C(N)=O)c12` (centres unmarked) [I.1.24] yielded a damage (Matricaria inodora) of 100%.
Work on `O=C(O)c1cc(C2(F)CC2)nc2onc(-c3ccc(C(F)(F)F)cc3)c12` [I.7.59] yielded a damage [1] of 100% and a damage (Polygonum convolvulus) of 100%.
In the case of `CCCN(CC1CC1)C(=O)COC(=O)c1cc(C2CC2)nc2onc(C)c12` [I.1.35], the damage (Abutilon theophrasti; application rate 3.0 kg/ha) is reported as 90% and the damage (Avena fatua; application rate 3.0 kg/ha) is reported as 85%.
With `CCCCc1noc2nc(C3(F)CC3)cc(C(=O)O)c12` [I.7.66] the damage (Polygonum convolvulus) was 100% and the damage (Chenopodium album) was 100%.
For `CCOC(=O)c1cc(C2CC2)nc2onc(C)c12` [I.1.63], the damage (Avena fatua; application rate 3.0 kg/ha) was 80%.
Molecule `O=C(O)c1cc(C2CC2)nc2onc(-c3ccccc3Br)c12` [I.2.59] has a damage (Polygonum convolvulus) of 90% and a damage (Chenopodium album) of 95%.
In the case of `O=C(O)c1cc(C2CC2)nc2onc(-c3ccc([N+](=O)[O-])cc3)c12` [I.2.65], the damage [1] is reported as 100% and the damage (Polygonum convolvulus) is reported as 100%.
In the case of `Cc1noc2nc(C3CC3)cc(C(=O)OCC(F)(F)F)c12` [I.1.67], the damage (Abutilon theophrasti; application rate 3.0 kg/ha) is reported as 100% and the damage (Avena fatua; application rate 3.0 kg/ha) is reported as 95%.
`Cc1ccsc1-c1noc2nc(C3CC3)cc(C(=O)O)c12` [I.2.69] gave a damage (Polygonum convolvulus) of 85% and a pest or weed control at 1000 g/ha (Chenopodium album) of 95%.
In the case of `COc1ccc(-c2nc(COC(=O)c3cc(C4CC4)nc4onc(C)c34)co2)cc1` [I.1.31], the damage (Agrostis stolonifera L.) is reported as 85% and the damage (Matricaria inodora) is reported as 95%.
Molecule `Cc1noc2nc(C3CC3)cc(C(=O)OCC(=O)OC(C)(C)C)c12` [I.1.43] has a damage (Alopecurus myosuroides) of 80% and a damage (Avena fatua; application rate 1.0 kg/ha) of 90%.
In the case of `CC(C)c1noc2nc(C3(F)CC3)cc(C(=O)O)c12` [I.7.67], the damage (Polygonum convolvulus) is reported as 100% and the pest or weed control at 1000 g/ha (Chenopodium album) is reported as 100%.
`COC(=O)c1cc(C2CC2)nc2onc(C)c12` [I.1.39] was tested, and the damage (Agrostis stolonifera L.) was 90% and the damage (Avena fatua; application rate 2.0 kg/ha) was 85%.
`CCOC(=O)C1=C(COC(=O)c2cc(C3CC3)nc3onc(C)c23)NC(=O)NC1` [I.1.2] showed a damage (Matricaria inodora) of 90%.
`O=C(O)c1cc(C2CC2)nc2onc(-c3ccccc3OC(F)F)c12` [I.2.64] showed a damage [1] of 100% and a damage (Polygonum convolvulus) of 80%.
Molecule `O=C(O)c1cc(C2CC2)nc2onc(C3CCC3)c12` [I.2.12] has a pest or weed control at 3000 g/ha (Setaria faberi; application rate 3.0 kg/ha, scale 0 to 100, read-out: damage) of 90% and a pest or weed control at 3000 g/ha (Abutilon theophrasti; Abutilon theophrasti, application rate 3.0 kg/ha) of 100%.
Work on `O=C(O)c1cc(C2(F)CC2)nc2onc(-c3ccc(Br)cc3)c12` [I.7.60] yielded a damage [1] of 100% and a damage (Polygonum convolvulus) of 100%.
`O=C(O)c1cc(C2CC2)nc2onc(-c3ccco3)c12` [I.2.4] showed a damage (Matricaria inodora) of 98%.
With `CC(C)(C)Cc1noc2nc(C3CC3)cc(C(=O)O)c12` [I.2.2] the damage (Setaria faberi; application rate 2.0 kg/ha) was 90% and the damage (Abutilon theophrasti; application rate 2.0 kg/ha) was 100%.
`CCc1ccc(C(=O)COC(=O)c2cc(C3CC3)nc3onc(C)c23)s1` [I.1.49] gave a damage (Agrostis stolonifera L.) of 85% and a damage (Matricaria inodora) of 98%.
Work on `Cc1noc2nc(C3CC3)cc(C(=O)OCc3nc4ccccc4o3)c12` [I.1.21] yielded a damage (Chenopodium album) of 100% and a damage (Lolium multiflorum) of 100%.
For `COc1ccc(-c2noc3nc(C4CC4)cc(C(=O)O)c23)cc1` [I.2.8], the damage (Setaria faberi; application rate 3.0 kg/ha) was 80% and the damage (Abutilon theophrasti; application rate 3.0 kg/ha) was 100%.
